Experimental data taken from ChEMBL document CHEMBL3991601, “The target landscape of clinical kinase drugs” (Science, 2017).
The source made the active and inactive calls. For most assays here, no stated cut-off is given here; in the data, actives have a measured Kd and inactives only a lower limit.

Legend:
[1] = molecular target: Casein kinase I isoform alpha (Homo sapiens, UniProt P48729)
[2] = molecular target: T1, Bone morphogenetic protein receptor type-2 (Homo sapiens, UniProt Q13873)
T1 sequence (Q13873 whole entry): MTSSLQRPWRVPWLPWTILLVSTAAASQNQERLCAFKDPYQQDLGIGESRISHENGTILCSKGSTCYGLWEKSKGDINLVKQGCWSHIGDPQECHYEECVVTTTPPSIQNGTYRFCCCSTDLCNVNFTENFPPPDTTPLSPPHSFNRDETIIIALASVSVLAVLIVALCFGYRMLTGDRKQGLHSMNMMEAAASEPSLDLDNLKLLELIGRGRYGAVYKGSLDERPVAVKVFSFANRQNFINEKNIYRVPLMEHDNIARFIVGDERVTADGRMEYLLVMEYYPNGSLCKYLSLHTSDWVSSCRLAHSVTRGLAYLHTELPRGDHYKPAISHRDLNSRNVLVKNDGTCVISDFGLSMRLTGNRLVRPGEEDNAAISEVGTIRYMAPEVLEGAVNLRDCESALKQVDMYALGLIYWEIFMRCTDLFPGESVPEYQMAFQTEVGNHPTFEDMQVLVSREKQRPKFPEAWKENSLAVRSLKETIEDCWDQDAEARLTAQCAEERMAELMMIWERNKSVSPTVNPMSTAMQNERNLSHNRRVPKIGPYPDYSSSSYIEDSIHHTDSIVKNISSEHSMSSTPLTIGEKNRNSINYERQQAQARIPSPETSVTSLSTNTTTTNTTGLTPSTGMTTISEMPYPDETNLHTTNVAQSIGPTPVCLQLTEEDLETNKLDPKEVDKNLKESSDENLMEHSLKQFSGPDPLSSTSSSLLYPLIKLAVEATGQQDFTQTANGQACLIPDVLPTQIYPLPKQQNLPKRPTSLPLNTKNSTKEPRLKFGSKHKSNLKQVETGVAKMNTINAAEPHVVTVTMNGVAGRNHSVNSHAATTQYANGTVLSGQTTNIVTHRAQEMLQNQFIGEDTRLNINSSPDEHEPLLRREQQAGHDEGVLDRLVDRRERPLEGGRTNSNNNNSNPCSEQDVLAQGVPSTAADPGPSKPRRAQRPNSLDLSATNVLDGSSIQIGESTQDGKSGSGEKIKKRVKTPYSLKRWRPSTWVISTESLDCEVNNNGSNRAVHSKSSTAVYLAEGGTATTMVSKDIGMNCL

[3] = molecular target: T2, Adenine phosphoribosyltransferase (Homo sapiens, UniProt P07741)
T2 sequence (P07741 whole entry): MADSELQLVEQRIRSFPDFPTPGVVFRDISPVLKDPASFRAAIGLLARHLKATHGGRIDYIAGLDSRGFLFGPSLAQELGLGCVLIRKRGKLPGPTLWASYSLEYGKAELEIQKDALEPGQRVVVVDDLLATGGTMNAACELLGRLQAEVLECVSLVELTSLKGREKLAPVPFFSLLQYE

[4] = molecular target: T3, Peroxisomal acyl-coenzyme A oxidase 1 (Homo sapiens, UniProt Q15067)
T3 sequence (Q15067 whole entry): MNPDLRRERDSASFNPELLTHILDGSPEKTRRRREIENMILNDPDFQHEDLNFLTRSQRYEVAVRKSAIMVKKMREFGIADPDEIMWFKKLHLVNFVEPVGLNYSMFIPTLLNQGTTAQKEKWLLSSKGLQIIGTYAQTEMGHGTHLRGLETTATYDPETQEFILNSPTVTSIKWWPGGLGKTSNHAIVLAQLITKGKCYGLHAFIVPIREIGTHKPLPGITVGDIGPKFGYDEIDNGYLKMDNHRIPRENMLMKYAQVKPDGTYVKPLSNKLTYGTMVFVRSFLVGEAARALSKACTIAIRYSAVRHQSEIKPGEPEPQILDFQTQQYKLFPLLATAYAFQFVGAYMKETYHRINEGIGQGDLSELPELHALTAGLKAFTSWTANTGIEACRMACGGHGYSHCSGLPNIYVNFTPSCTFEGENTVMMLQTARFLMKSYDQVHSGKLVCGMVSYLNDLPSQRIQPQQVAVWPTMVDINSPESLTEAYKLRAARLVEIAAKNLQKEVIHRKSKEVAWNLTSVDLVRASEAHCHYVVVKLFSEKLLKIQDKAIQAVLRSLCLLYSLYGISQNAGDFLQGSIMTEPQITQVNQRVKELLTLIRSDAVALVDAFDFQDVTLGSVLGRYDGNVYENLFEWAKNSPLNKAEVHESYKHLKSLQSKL

[5] = molecular target: Epithelial discoidin domain-containing receptor 1 (Homo sapiens, UniProt Q08345)
[6] = molecular target: Ribosomal protein S6 kinase alpha-3 (Homo sapiens, UniProt P51812)
[7] = molecular target: Mitogen-activated protein kinase kinase kinase 1 (Homo sapiens, UniProt Q13233)
[8] = molecular target: DnaJ homolog subfamily A member 1 (Homo sapiens, UniProt P31689)
[9] = molecular target: Chromodomain-helicase-DNA-binding protein 4 (Homo sapiens, UniProt Q14839)
[10] = molecular target: Mitogen-activated protein kinase kinase kinase kinase 1 (Homo sapiens, UniProt Q92918)
Wee1-like protein kinase = Wee1-like protein kinase (Homo sapiens, UniProt P30291)
Chain of Wee1-like protein kinase (P30291 whole entry): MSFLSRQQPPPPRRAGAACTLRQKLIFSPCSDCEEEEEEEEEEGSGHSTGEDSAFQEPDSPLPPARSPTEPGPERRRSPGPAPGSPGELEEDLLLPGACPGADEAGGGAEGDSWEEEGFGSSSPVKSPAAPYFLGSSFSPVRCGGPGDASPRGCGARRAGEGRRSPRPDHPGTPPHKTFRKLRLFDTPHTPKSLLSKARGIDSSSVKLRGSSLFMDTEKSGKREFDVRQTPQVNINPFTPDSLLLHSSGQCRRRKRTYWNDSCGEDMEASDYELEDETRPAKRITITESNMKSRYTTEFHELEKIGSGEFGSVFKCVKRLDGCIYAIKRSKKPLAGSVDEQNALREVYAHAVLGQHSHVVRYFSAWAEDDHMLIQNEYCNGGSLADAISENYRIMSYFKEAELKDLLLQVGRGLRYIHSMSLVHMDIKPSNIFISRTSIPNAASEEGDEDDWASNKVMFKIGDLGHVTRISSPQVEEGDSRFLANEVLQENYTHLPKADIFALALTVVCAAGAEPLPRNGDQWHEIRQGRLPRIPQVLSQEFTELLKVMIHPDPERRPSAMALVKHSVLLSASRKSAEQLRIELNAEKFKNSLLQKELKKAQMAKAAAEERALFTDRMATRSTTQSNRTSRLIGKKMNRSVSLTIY

Chain of Ribosomal protein S6 kinase alpha-3 (P51812 whole entry): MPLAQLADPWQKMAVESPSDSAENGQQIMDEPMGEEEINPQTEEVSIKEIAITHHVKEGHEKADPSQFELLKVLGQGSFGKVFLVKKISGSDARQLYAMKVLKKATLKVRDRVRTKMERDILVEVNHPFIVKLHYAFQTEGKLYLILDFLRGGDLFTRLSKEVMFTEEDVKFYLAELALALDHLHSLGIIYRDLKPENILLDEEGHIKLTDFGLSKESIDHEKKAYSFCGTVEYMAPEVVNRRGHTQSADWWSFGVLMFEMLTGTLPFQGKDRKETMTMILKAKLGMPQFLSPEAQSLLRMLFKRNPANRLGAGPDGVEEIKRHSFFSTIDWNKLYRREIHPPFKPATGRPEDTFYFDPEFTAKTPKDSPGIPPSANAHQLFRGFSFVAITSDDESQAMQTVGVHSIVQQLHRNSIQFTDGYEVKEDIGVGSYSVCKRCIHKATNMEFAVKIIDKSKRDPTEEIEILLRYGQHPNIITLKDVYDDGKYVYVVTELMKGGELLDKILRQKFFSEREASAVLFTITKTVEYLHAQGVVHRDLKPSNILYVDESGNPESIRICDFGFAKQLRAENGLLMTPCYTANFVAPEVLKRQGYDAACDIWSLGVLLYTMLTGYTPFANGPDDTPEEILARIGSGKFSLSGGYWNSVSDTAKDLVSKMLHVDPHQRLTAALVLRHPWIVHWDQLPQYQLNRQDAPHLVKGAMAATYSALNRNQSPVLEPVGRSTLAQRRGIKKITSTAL
Chain of Mitogen-activated protein kinase kinase kinase 1 (Q13233 whole entry): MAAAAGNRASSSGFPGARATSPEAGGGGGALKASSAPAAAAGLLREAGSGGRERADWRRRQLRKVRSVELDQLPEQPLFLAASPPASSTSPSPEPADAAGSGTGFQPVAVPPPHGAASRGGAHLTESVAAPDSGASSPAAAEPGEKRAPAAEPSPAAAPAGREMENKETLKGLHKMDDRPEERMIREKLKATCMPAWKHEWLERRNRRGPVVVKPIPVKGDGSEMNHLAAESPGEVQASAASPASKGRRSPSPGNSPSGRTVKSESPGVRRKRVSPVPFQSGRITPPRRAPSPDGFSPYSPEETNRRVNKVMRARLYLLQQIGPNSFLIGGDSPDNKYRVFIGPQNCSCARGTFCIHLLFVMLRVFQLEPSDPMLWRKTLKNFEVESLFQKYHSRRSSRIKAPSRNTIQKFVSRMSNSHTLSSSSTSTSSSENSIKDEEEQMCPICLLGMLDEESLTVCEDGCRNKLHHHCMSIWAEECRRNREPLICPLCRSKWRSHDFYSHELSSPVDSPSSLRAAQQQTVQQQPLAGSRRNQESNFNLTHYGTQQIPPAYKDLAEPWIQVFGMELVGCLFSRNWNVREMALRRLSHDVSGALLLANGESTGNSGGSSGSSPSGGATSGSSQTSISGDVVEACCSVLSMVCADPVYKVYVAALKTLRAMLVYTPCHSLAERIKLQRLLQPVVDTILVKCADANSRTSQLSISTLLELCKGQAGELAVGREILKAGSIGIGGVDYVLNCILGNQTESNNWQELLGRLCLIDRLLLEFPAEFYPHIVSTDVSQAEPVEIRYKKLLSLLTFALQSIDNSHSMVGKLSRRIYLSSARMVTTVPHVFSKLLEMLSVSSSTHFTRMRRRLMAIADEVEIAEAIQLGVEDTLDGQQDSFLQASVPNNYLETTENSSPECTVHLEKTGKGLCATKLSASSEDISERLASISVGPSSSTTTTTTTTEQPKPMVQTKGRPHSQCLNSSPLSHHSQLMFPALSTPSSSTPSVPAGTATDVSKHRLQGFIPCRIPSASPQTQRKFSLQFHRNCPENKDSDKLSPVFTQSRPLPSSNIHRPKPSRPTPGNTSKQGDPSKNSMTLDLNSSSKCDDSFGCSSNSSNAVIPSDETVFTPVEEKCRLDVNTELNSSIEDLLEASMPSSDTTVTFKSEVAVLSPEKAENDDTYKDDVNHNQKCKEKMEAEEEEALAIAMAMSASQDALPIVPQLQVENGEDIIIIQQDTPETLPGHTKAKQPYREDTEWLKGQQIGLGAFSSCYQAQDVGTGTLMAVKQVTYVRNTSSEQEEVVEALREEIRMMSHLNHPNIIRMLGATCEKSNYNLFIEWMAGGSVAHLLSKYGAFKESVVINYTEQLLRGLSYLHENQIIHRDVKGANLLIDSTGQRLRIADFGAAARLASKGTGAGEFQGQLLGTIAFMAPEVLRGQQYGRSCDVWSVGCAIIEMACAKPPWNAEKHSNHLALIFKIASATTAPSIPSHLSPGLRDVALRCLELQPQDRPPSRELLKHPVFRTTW
Chain of Epithelial discoidin domain-containing receptor 1 (Q08345 whole entry, the tested form may be a part): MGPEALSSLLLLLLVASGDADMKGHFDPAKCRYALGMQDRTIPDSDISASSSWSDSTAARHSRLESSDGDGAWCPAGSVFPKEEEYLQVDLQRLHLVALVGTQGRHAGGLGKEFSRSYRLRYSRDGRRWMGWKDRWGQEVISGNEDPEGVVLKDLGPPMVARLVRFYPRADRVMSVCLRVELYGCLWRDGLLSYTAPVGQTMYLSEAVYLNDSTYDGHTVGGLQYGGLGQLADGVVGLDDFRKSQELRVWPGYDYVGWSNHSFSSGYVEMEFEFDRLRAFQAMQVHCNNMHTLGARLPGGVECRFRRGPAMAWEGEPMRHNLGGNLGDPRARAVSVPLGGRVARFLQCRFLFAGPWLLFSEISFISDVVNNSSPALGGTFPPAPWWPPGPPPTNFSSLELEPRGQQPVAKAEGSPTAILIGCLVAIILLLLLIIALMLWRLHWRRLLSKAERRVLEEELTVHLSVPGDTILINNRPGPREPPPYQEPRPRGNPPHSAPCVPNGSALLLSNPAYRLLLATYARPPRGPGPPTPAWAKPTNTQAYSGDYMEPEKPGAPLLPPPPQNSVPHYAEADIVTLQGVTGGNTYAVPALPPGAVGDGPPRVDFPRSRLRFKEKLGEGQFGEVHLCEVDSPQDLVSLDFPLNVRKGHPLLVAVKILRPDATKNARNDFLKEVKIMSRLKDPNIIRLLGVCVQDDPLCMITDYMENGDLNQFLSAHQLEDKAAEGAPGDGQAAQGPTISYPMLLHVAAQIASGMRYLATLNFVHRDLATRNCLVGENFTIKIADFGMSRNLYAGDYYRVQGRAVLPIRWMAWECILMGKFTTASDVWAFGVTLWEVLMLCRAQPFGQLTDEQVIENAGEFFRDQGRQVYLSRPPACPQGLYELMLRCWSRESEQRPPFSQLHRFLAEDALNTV
Chain of DnaJ homolog subfamily A member 1 (P31689 whole entry): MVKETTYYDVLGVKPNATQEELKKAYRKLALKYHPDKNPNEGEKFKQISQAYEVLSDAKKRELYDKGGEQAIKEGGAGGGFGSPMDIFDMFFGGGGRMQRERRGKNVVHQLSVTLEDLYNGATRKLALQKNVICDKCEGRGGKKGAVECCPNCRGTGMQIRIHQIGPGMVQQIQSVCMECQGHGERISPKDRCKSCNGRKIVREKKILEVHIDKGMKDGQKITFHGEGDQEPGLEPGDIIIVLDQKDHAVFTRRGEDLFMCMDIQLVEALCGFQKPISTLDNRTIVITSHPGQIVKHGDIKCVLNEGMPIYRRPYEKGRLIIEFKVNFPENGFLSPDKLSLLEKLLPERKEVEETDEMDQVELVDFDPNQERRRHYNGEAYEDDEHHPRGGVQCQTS
Chain of Mitogen-activated protein kinase kinase kinase kinase 1 (Q92918 whole entry): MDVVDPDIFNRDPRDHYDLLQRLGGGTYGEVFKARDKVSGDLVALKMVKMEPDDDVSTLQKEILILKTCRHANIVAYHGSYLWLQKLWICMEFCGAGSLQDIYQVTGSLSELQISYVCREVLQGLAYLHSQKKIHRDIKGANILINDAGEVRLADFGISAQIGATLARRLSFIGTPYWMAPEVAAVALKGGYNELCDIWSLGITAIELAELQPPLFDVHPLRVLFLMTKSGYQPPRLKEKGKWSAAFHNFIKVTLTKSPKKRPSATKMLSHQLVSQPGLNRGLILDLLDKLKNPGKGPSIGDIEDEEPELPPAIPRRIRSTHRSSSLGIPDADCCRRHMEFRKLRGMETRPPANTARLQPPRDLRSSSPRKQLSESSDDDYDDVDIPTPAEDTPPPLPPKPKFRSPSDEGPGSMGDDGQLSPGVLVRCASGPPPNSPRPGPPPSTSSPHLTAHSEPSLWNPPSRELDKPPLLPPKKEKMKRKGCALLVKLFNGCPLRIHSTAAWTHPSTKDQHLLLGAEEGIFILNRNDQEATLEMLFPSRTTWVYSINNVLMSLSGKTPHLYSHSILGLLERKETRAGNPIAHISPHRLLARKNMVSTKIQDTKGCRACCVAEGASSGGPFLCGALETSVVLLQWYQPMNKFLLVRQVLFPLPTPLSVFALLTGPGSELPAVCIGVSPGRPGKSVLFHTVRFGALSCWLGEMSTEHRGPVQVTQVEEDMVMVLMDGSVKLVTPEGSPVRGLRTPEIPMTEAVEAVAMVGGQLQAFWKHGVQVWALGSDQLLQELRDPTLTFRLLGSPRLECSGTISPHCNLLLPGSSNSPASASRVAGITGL

SMILES	Kd [1]	Kd [2]	Kd [3]	Kd [4]	Kd [5]	Kd [6]	Kd [7]	Kd [8]	Kd [9]	Kd [10]	Kd (Wee1-like protein kinase)
CN(C[C@@H]1COCCO1)S(=O)(=O)Nc1ccc2ccc3ncc(-c4cnn(C)c4)cc3c(=O)c2c1 [MK-2461]	> 30 µM (inactive)	> 30 µM (inactive)	> 30 µM (inactive)	> 30 µM (inactive)	> 30 µM (inactive)	> 30 µM (inactive)	> 30 µM (inactive)	> 30 µM (inactive)	> 30 µM (inactive)	> 30 µM (inactive)	> 30 µM (inactive)
CC(C)(C)c1nc(-c2cccc(NS(=O)(=O)c3c(F)cccc3F)c2F)c(-c2ccnc(N)n2)s1 [DABRAFENIB]	> 30 µM (inactive)	> 30 µM (inactive)	> 30 µM (inactive)	> 30 µM (inactive)	> 30 µM (inactive)		> 30 µM (inactive)	> 30 µM (inactive)	> 30 µM (inactive)	> 30 µM (inactive)	> 30 µM (inactive)
COc1cc(Nc2ncc3c(n2)-c2ccc(Cl)cc2C(c2c(F)cccc2OC)=NC3)ccc1C(=O)O [ALISERTIB]		> 30 µM (inactive)	> 30 µM (inactive)	> 30 µM (inactive)	> 30 µM (inactive)		> 30 µM (inactive)		> 30 µM (inactive)	> 30 µM (inactive)	> 30 µM (inactive)
Cc1nc2cc(-c3nn(C(C)C)c4ncnc(N)c34)ccc2o1		> 30 µM (inactive)	> 30 µM (inactive)	> 30 µM (inactive)	0.881 µM (active)	> 30 µM (inactive)	1.05 µM (active)	> 30 µM (inactive)	> 30 µM (inactive)	> 30 µM (inactive)	> 30 µM (inactive)
Cc1nc(NC(=O)N2CCC[C@H]2C(N)=O)sc1-c1ccnc(C(C)(C)C(F)(F)F)c1 [ALPELISIB]	> 30 µM (inactive)	> 30 µM (inactive)	> 30 µM (inactive)	> 30 µM (inactive)	> 30 µM (inactive)	> 30 µM (inactive)	> 30 µM (inactive)	> 30 µM (inactive)	> 30 µM (inactive)		> 30 µM (inactive)
CNC(=O)c1ccccc1Sc1ccc2c(/C=C/c3ccccn3)n[nH]c2c1 [AXITINIB]			> 30 µM (inactive)	> 30 µM (inactive)				> 30 µM (inactive)	> 30 µM (inactive)		
C[C@@H](Oc1cc(-n2cnc3ccc(CN4CCN(C)CC4)cc32)sc1C(N)=O)c1ccccc1C(F)(F)F [GSK-461364]			> 30 µM (inactive)	> 30 µM (inactive)				> 30 µM (inactive)	> 30 µM (inactive)		
COc1ccc(S(=O)(=O)N(C(C)=O)c2ccccc2/C=C/c2cc[n+]([O-])cc2)cc1 [HMN-214]	> 30 µM (inactive)	> 30 µM (inactive)	> 30 µM (inactive)		> 30 µM (inactive)	> 30 µM (inactive)	> 30 µM (inactive)	> 30 µM (inactive)	> 30 µM (inactive)	> 30 µM (inactive)	> 30 µM (inactive)
CCOc1cc2ncc(C#N)c(Nc3ccc(F)c(Cl)c3)c2cc1NC(=O)/C=C/CN(C)C [PELITINIB]	> 30 µM (inactive)	> 30 µM (inactive)	> 30 µM (inactive)	> 30 µM (inactive)	> 30 µM (inactive)	> 30 µM (inactive)	0.097 µM (active)	> 30 µM (inactive)	> 30 µM (inactive)	1.1 µM (active)	
NC(=O)Nc1cc(-c2cccc(F)c2)sc1C(=O)N[C@H]1CCCNC1 [AZD-7762]	> 30 µM (inactive)	> 30 µM (inactive)	> 30 µM (inactive)	> 30 µM (inactive)	> 30 µM (inactive)	> 30 µM (inactive)	> 30 µM (inactive)	> 30 µM (inactive)	> 30 µM (inactive)		> 30 µM (inactive)
O=C(Nc1c[nH]nc1-c1nc2cc(CN3CCOCC3)ccc2[nH]1)NC1CC1 [AT-9283]	> 30 µM (inactive)	0.043 µM (active)	> 30 µM (inactive)	> 30 µM (inactive)				> 30 µM (inactive)	> 30 µM (inactive)	0.214 µM (active)	> 30 µM (inactive)

Continued, values first:

Kd [1]	Kd [2]	Kd [3]	Kd [4]	Kd [5]	Kd [6]	Kd [7]	Kd [8]	Kd [9]	Kd [10]	Kd (Wee1-like protein kinase)	SMILES
> 30 µM (inactive)	> 30 µM (inactive)	> 30 µM (inactive)	> 30 µM (inactive)	> 30 µM (inactive)	> 30 µM (inactive)	> 30 µM (inactive)	> 30 µM (inactive)	> 30 µM (inactive)	> 30 µM (inactive)	> 30 µM (inactive)	CN1C/C=C/CCOc2cccc(c2)-c2ccnc(n2)Nc2cccc(c2)C1 [ZOTIRACICLIB]
	> 30 µM (inactive)	> 30 µM (inactive)	> 30 µM (inactive)	> 30 µM (inactive)	> 30 µM (inactive)	> 30 µM (inactive)	> 30 µM (inactive)	> 30 µM (inactive)	> 30 µM (inactive)	> 30 µM (inactive)	C[C@@H](N)c1ccc(C(=O)Nc2ccnc3[nH]ccc23)cc1 [Y-39983]
	0.008 µM	> 30 µM (inactive)	> 30 µM (inactive)	> 30 µM (inactive)		2.18 µM	> 30 µM (inactive)	> 30 µM (inactive)	> 30 µM (inactive)	1.59 µM (active)	CC(=O)NCC(=O)N1[C@@H]2CC[C@H]1c1ccc(Nc3ncc(C(F)(F)F)c(NC4CCC4)n3)cc12 [PF-03814735]
> 30 µM (inactive)	> 30 µM (inactive)	> 30 µM (inactive)		> 30 µM (inactive)	0.1 µM (active)	> 30 µM (inactive)	> 30 µM (inactive)	> 30 µM (inactive)	2.3 µM (active)	2.77 µM (active)	Cc1nc(Nc2n[nH]c3c2CN(C(=O)N[C@H](CN(C)C)c2ccccc2)C3(C)C)c2sccc2n1 [PF-03758309]
> 30 µM (inactive)	> 30 µM (inactive)	> 30 µM (inactive)		0.063 µM (active)	> 30 µM (inactive)	2.09 µM (active)	> 30 µM (inactive)	> 30 µM (inactive)	> 30 µM (inactive)	0.252 µM (active)	C[C@@H](NC(=O)c1ncnc(N)c1Cl)c1ncc(C(=O)Nc2cc(C(F)(F)F)c(Cl)cn2)s1 [TOVORAFENIB]
	> 30 µM (inactive)	> 30 µM (inactive)	> 30 µM (inactive)	0.067 µM (active)		0.135 µM (active)	> 30 µM (inactive)	> 30 µM (inactive)	> 30 µM (inactive)	> 30 µM (inactive)	NC(=O)c1c(OCc2c(F)cc(Br)cc2F)nsc1NC(=O)NCCCCN1CCCC1 [OSI-632]
